Assay results: patent publication US20160046603A1, “Crystalline Forms of D-Glucitol, 1-Deoxy-1-(Methylamino)-, 1-(6-Amino-3,5-Difluoropyridine-2-Yl)-8-Chloro-6-Fluoro-1,4-Dihydro-7-(3-Hydroxyazetidin-1-Yl)-4-Oxo-3-Quinolinecarboxylate” (MELINTA THERAPEUTICS, INC., priority 2013, published 2016)

Experiments:
[1] = over the parent acid; cited from earlier work
[2] = Intrinsic dissolution rate; type: physicochemical
Procedure: Approximately 100 mg of the pure test compound was compressed under high pressure (7 ton), using a constructed die. No additives were added, thus avoiding any external interference in the intrinsic dissolution profile. The resulting non-disintegrating disc was transferred to the dissolution apparatus, Distek model 5100 premiere dissolution system, containing 900 mL of pH 5 buffer with 15 mM hexadecyl trimethyl ammonium bromide (HTAB), pre-heated to 37° C. The stirring speed of the paddle was set to 50 rpm. The solution was sampled at set time points with the resulting aliquots analyzed directly by HPLC, with reference to standard solutions. 5 standards, with concentrations ranging from 0.03 to 0.005 mg/mL in deionized water, and the sample solutions were injected, together with blank injections of the deionized water. The concentration was calculated using the peak areas determined by integration of the peak found at the same retention time as the principal peak in the standard injection.

[3] = Modulated differential scanning calorimetry (mDSC); type: physicochemical; settings: mDSC thermogram, FIG. 4
Procedure: DSC data were collected on a TA Instruments Q2000 equipped with a 50 position autosampler. Similar instruments can be used to collect DSC data. The calibration for thermal capacity was carried out using sapphire and the calibration for energy and temperature was carried out using certified indium. Modulated temperature DSC was carried out using an underlying heating rate of 2° C./min and temperature modulation parameters of ±1.2° C. (amplitude) every 60 seconds (period). Typically 0.5-3 mg of each sample, in a pin-holed aluminum pan, was heated at […] from 25° C. to 220° C. A purge of dry nitrogen at 50 ml/min was maintained over the sample. The instrument control software was Advantage for Q Series v2.8.0.392 and Thermal Advantage v4.8.3 and the data were analyzed using Universal Analysis v4.4A.

[4] = Solid-state stability / polymorph conversion followed by XRPD; type: physicochemical; settings: for thermodynamic stability: Form 1A versus Form 1B
Procedure: X-Ray Powder Diffraction patterns were collected on a Bruker AXS C2 GADDS diffractometer using Cu Kα radiation (40 kV, 40 mA), automated XYZ stage, laser video microscope for auto-sample positioning and a HiStar 2-dimensional area detector. X-ray optics consists of a single Gael multilayer mirror coupled with a pinhole collimator of 0.3 mm. A weekly performance check was carried out using a certified standard NIST 1976 Corundum (flat plate). Similar instruments can be used to obtain XRPD patterns.
The beam divergence, i.e. the effective size of the X-ray beam on the sample, was approximately 4 mm. A θ-θ continuous scan mode was employed with a sample—detector distance of 20 cm which gives an effective 2θ range of 3.2°-29.7°. The samples were exposed to the X-ray beam for approximately 120 seconds. The software used for data collection was GADDS for WNT 4.1.16 and the data were analyzed and presented using Diffrac Plus EVA v11.0.0.2 or v13.0.0.2.
Samples run under ambient conditions were prepared as flat plate specimens using powder as received without grinding. Approximately 1-2 mg of the sample was lightly pressed on a glass slide to obtain a flat surface.

[5] = test system: Gram-negative and Gram-negative bacteria; settings: cited from earlier work
topoisomerase and gyrase = settings: cited from earlier work
[6] = Phase 2 trials, nearly 1,400 patients; cited from earlier work

SMILES: CNC[C@H](O)[C@@H](O)[C@H](O)[C@H](O)CO.Nc1nc(-n2cc(C(=O)O)c(=O)c3cc(F)c(N4CC(O)C4)c(Cl)c32)c(F)cc1F [D-glucitol, 1-deoxy-1-(methylamino)-, 1-(6-amino-3,5-difluoropyridin-2-yl)-8-chloro-6-fluoro-1,4-dihydro-7-(3-hydroxyazetidin-1-yl)-4-oxo-3-quinolinecarboyxlate]
- solubility, dissolution and bioavailability [1]: improved solubility, dissolution and bioavailability

SMILES: CNC[C@H](O)[C@@H](O)[C@H](O)[C@H](O)CO.Nc1nc(-n2cc(C(=O)O)c(=O)c3cc(F)c(N4CC(O)C4)c(Cl)c32)c(F)cc1F [Form 1B, D-glucitol, 1-deoxy-1-(methylamino)-, 1-(6-amino-3,5-difluoropyridin-2-yl)-8-chloro-6-fluoro-1,4-dihydro-7-(3-hydroxyazetidin-1-yl)-4-oxo-3-quinolinecarboyxlate]
- initial dissolution rate (intrinsic dissolution profile) ([2]; compressed disc, 900 mL pH 5 buffer with 15 mM HTAB, 37° C., 50 rpm, compared with the other phase): significantly faster initial dissolution rates
- dissociation to the free acid post IDR ([2]; confirmed by 1H NMR analyses post IDR): almost complete dissociation to the free acid
- non-reversible transition of Form 1B to Form 1A [3]: about 94 °C
- thermodynamic stability [4]: metastable
- conversion of polymorphic form ([4]; exposure to humidity and heat, followed by XRPD b-axis reflections): converts to crystalline anhydrous Form 1A delafloxacin meglumine on exposure to humidity and heat

SMILES: Nc1nc(-n2cc(C(=O)O)c(=O)c3cc(F)c(N4CC(O)C4)c(Cl)c32)c(F)cc1F [Delafloxacin, 1-deoxy-1-(methylamino)-, 1-(6-amino-3,5-difluoropyridin-2-yl)-8-chloro-6-fluoro-1,4-dihydro-7-(3-hydroxyazetidin-1-yl)-4-oxo-3-quinolinecarboyxlate]
- potency against bacteria [5]: highly potent
- inhibition of topoisomerase and gyrase enzyme targets (topoisomerase and gyrase): balanced inhibition
- tolerance and safety [6]: good tolerance and safety

SMILES: CNC[C@H](O)[C@@H](O)[C@H](O)[C@H](O)CO.Nc1nc(-n2cc(C(=O)O)c(=O)c3cc(F)c(N4CC(O)C4)c(Cl)c32)c(F)cc1F [Form 1A, D-glucitol, 1-deoxy-1-(methylamino)-, 1-(6-amino-3,5-difluoropyridin-2-yl)-8-chloro-6-fluoro-1,4-dihydro-7-(3-hydroxyazetidin-1-yl)-4-oxo-3-quinolinecarboyxlate]
- dissolution characteristics ([2]; Form 1A versus Form 1B): improved dissolution characteristics
- thermodynamic stability [4]: thermodynamic stability over Form 1B
